Test: solvent given as SMILES

## N#CC(C#N)=Cc1cn(-c2ccccc2)nc1-c1ccc([N+](=O)[O-])cc1
In C1CCOC1
  absorption maximum: 346 nm
In C1COCCO1
  absorption maximum: 346 nm
In CCO
  absorption maximum: 346 nm
In CCOC(C)=O
  absorption maximum: 346 nm
In CN(C)C=O
  absorption maximum: 347 nm
In CO
  absorption maximum: 345 nm
In CS(C)=O
  absorption maximum: 343 nm
In Cc1ccccc1
  absorption maximum: 356 nm
In ClC(Cl)Cl
  absorption maximum: 352 nm

## CC(=O)c1ccc(-c2cc3c(ccc4sccc43)s2)cc1
In ClCCl
  absorption maximum: 350 nm

## O=S(=O)([O-])c1ccc2c(O)cc(S(=O)(=O)[O-])cc2c1
In O
  absorption maximum: 295 nm

## Cc1ccc(-c2[nH]c(=O)n3c2-c2ccccc2C3=O)c(O)c1
In CC#N
  absorption maximum: 393 nm
In CO
  absorption maximum: 397 nm
In ClCCl
  absorption maximum: 393 nm

## COC(=O)C(NC(=O)OC(C)(C)C)c1ccc2oc(-c3cc(OC)ccc3OC)nc2c1 (configuration not stated)
In CC1CCCCC1
  absorption maximum: 332 nm
In CC#N
  absorption maximum: 333 nm
In CO
  absorption maximum: 337 nm

## CCCCCCCN1C(=CC2=C([O-])C(=CC3=[N+](CCCCCCC)c4ccccc4C3(C)C)C2=C(C#N)C#N)C(C)(C)c2ccccc21
In C1COCCO1
  absorption maximum: 689 nm
In CCO
  absorption maximum: 673 nm
In CN(C)C=O
  absorption maximum: 681 nm
In ClC(Cl)Cl
  absorption maximum: 685 nm

## COc1ccc(C2=C3C=c4c(oc5cc6c(cc45)[C@H]4CC[C@]5(C)C(=O)CC[C@H]5[C@@H]4CC6)=[N+]3[B-](F)(F)n3c2cc2c4cc5c(cc4oc23)CC[C@@H]2[C@@H]5CC[C@]3(C)C(=O)CC[C@@H]23)cc1
In CCOC(C)=O
  absorption maximum: 596.5 nm
In CCOCC
  absorption maximum: 596.5 nm
In CO
  absorption maximum: 595.5 nm

## Cc1cc(-c2ccc(C(C)(C)C)cc2)c2nsnc2c1-c1ccc(N(c2ccccc2)c2ccccc2)cc1
In ClCCl
  absorption maximum: 402 nm

## COc1ccc(C#CC2=C3CCc4ccccc4C3=[O+][B-](F)(F)O2)cc1
In ClCCl
  absorption maximum: 446 nm

## C(=C\c1c2ccccc2cc2ccccc12)/c1ccc2ccccc2c1
In CC1CCCCC1
  absorption maximum: 386 nm
In CC#N
  absorption maximum: 387 nm

## COc1ccc2c(CC(=O)NN)coc2c1
In C1CCOC1
  absorption maximum: 290 nm
In CC#N
  absorption maximum: 290 nm
In CC(C)=O
  absorption maximum: 298 nm
In CCCCO
  absorption maximum: 278 nm
In CCCO
  absorption maximum: 289 nm
In CCO
  absorption maximum: 291 nm
In CCOC(C)=O
  absorption maximum: 300 nm
In CN(C)C=O
  absorption maximum: 288 nm
In CO
  absorption maximum: 290 nm
In ClCCl
  absorption maximum: 287 nm

## O=[N+]([O-])c1cc(C=C(C#Cc2ccccc2)C#Cc2ccccc2)ccc1C=C(C#Cc1ccccc1)C#Cc1ccccc1
In ClC(Cl)Cl
  absorption maximum: 413 nm

## CC(=O)c1ccc(-c2cccc3ncc(-c4ccccc4)n23)cc1
In ClCCl
  absorption maximum: 358 nm

## CCB1c2ccccc2Nc2ccccc21
In ClCCl
  absorption maximum: 381 nm

## c1ccc(-c2nnc(-c3cc(-c4nnc(-c5ccccc5)o4)c(-n4c5ccccc5c5ccccc54)cc3-n3c4ccccc4c4ccccc43)o2)cc1
In Cc1ccccc1
  absorption maximum: 370 nm

## Cc1ccc(-c2c3nc(c(-c4ccc(C)cc4)c4ccc([nH]4)c(-c4ccc(C)cc4)c4nc(c(-c5ccc(C)cc5)c5ccc2[nH]5)C=C4N2CCOCC2)C=C3)cc1
In CS(C)=O
  absorption maximum: 653 nm

## CCCc1ccc(C#Cc2cc(C#Cc3ccc(CCC)cc3)c3ccc4c(C#Cc5ccc(CCC)cc5)cc(C#Cc5ccc(CCC)cc5)c5ccc2c3c54)cc1
In ClCCl
  absorption maximum: 470 nm

## CC(C)(C)c1ccc2oc3nc4oc5ccc(-n6c7ccc(C(C)(C)C)cc7c7cc(C(C)(C)C)ccc76)cc5c4cc3c2c1
In ClC(Cl)Cl
  absorption maximum: 346 nm

## Brc1ccc(-c2pc3ccccc3s2)cc1 (configuration not stated)
In CC#N
  absorption maximum: 337 nm

## COCCC1=Cc2nc1ccc1[nH]c(cc1CCOC)c1nc(ccc3[nH]c2cc3CCOC)C(CCOC)=C1
In Cc1ccccc1
  absorption maximum: 638 nm

## Cc1cc(/N=C/c2cc(S(=O)(=O)[O][Na])ccc2O)c(/N=C/c2cc(S(=O)(=O)[O][Na])ccc2O)cc1C
In O
  absorption maximum: 371 nm

## Cc1cccc(C)c1Nc1ccc(/C=C/c2cccnc2)cc1
In CC#N
  absorption maximum: 351 nm
In CCCCCC
  absorption maximum: 346 nm

## O=Cc1ccc(-c2ccc(O)c(-c3nc4ccccc4s3)c2)o1
In CCO
  absorption maximum: 341 nm

## N#CC(C#N)=Cc1ccc2c(c1)c1ccccc1n2-c1cc2ccccc2c2ccccc12
In CC#N
  absorption maximum: 395 nm
In CCCCC
  absorption maximum: 393 nm
In Cc1ccccc1
  absorption maximum: 402 nm
In ClCCl
  absorption maximum: 406 nm

## C(=C(c1ccccc1)c1ccccc1)c1ccc(-c2ccc(-c3nc4c5ccccc5c5ccccc5c4n3-c3cccc(-c4ccc(C=C(c5ccccc5)c5ccccc5)cc4)c3)cc2)cc1
In C1CCOC1
  absorption maximum: 340 nm

## O=Cc1cc(C=O)c2ccc3c(N4CCCCC4)cc(N4CCCCC4)c4ccc1c2c43
In C1COCCO1
  absorption maximum: 512 nm
In CC#N
  absorption maximum: 525 nm
In CC(C)=O
  absorption maximum: 521 nm
In CCCCCC
  absorption maximum: 498 nm
In CCO
  absorption maximum: 522 nm
In CCOC(C)=O
  absorption maximum: 514 nm
In CO
  absorption maximum: 523 nm
In CS(C)=O
  absorption maximum: 535 nm
In Cc1ccccc1
  absorption maximum: 516 nm
In ClCCl
  absorption maximum: 534 nm

## c1cc2c(C3SCCCS3)c3ccc(=[N+]4CCCCC4)cc-3oc2cc1N1CCCCC1
In CO
  absorption maximum: 583.65 nm

## N#Cc1nc2c3ccc(-n4c5ccccc5c5ccccc54)cc3c3cc(-n4c5ccccc5c5ccccc54)ccc3c2nc1C#N
In Cc1ccccc1
  absorption maximum: 442 nm

## CC(C)[Si]1(C(C)C)c2cc(N(C)C)ccc2-c2ccc(C(F)(F)F)cc21
In C1CCCCC1
  absorption maximum: 331 nm
In CC#N
  absorption maximum: 337 nm
In CCO
  absorption maximum: 335 nm
In CCOCC
  absorption maximum: 334 nm
In CS(C)=O
  absorption maximum: 344 nm
In ClCCl
  absorption maximum: 338 nm
In c1ccccc1
  absorption maximum: 338 nm

## Cc1cc2c(ccc3c[n+](C)c(C)cc32)c[n+]1C
In CC#N
  absorption maximum: 400 nm

## CC(C)(C)c1ccc(-c2c(-c3cccc(-n4c5ccccc5c5ccccc54)c3)c(C#N)c(-c3cccc(-n4c5ccccc5c5ccccc54)c3)c(-c3ccc(C(C)(C)C)cc3)c2-c2ccc(C(C)(C)C)cc2)cc1
In C1CCOC1
  absorption maximum: 360 nm

## CCC1=C(CC)C(C)=[N+]2C1=Cc1c(C)c3cc4c(cc3n1[B-]2(F)F)=[N+]1C(=Cc2c(CC)c(CC)c(C)n2[B-]1(F)F)C=4C
In ClC(Cl)Cl
  absorption maximum: 692 nm

## COc1c(/C=N/Nc2ccc(C#N)cc2)ccc2ccccc12
In CC#N
  absorption maximum: 380 nm
In CCCCCC
  absorption maximum: 387 nm
In CO
  absorption maximum: 382 nm
In CS(C)=O
  absorption maximum: 392 nm
In ClC(Cl)Cl
  absorption maximum: 385 nm

## CCCCCCc1cc2c3c(c1)c(=C1c4ccccc4Sc4ccccc41)c1cc(CCCCCC)cc4c1N3c1c(cc(CCCCCC)cc1c4=C1c3ccccc3Sc3ccccc31)c2=C1c2ccccc2Sc2ccccc21
In ClCCl
  absorption maximum: 430 nm

## CC(C)[Si]1(C(C)C)c2cc(C#N)ccc2-c2ccc(N(c3ccccc3)c3ccccc3)cc21
In C1CCCCC1
  absorption maximum: 391 nm
In CC#N
  absorption maximum: 381 nm
In CCO
  absorption maximum: 385 nm
In CCOCC
  absorption maximum: 383 nm
In CS(C)=O
  absorption maximum: 387 nm
In ClCCl
  absorption maximum: 388 nm
In c1ccccc1
  absorption maximum: 389 nm

## C/C(=N\Nc1ccc(C#N)cc1)c1cccc(/C(C)=N/Nc2ccc(C#N)cc2)c1
In CC#N
  absorption maximum: 355 nm
In CCCCCC
  absorption maximum: 359 nm
In CO
  absorption maximum: 346 nm
In CS(C)=O
  absorption maximum: 366 nm
In ClC(Cl)Cl
  absorption maximum: 353 nm

## CCN(CC)c1ccc(/C=N/Nc2ccc(C#N)cc2)c(O)c1
In CC#N
  absorption maximum: 382 nm
In CCCCCC
  absorption maximum: 384 nm
In CO
  absorption maximum: 368 nm
In CS(C)=O
  absorption maximum: 391 nm
In ClC(Cl)Cl
  absorption maximum: 373 nm

## CC1(C)C(/C=C/C2=C(c3ccc(C(=O)O)cc3)C(=C/C=C3/N(CCCS(=O)(=O)[O-])c4ccc5ccccc5c4C3(C)C)/CCC2)=[N+](CCCS(=O)(=O)[O-])c2ccc3ccccc3c21
In CO
  absorption maximum: 800 nm

Reference: the Deep4Chem optical property database
